In PubChem BioAssay AID248 (DTP/NCI, 2004):
Toxic doses and inconclusive results are not listed. No stated cut-off is given here; in the data, active means T/C of 150% or more; inactive means T/C below 125%.

System: L1210 leukemia ip in BDF1 mice, survival T/C
Assay: NCI In Vivo Anticancer Drug Screen. Data for tumor model L1210 Leukemia (intraperitoneal) in B6D2F1 (BDF1) mice
Conditions: endpoint: mean survival time, higher = longer survival
In short: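 Tumor was transplanted into mice, which were then dosed with test compound or vehicle alone. Survival was recorded for each group, and the treated figure was expressed relative to the control figure.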

[1] = dose: 100.0 mg/kg/injection, schedule: Q01DX001 (ip), vehicle: saline
[2] = dose: 100.0 mg/kg/injection, schedule: Q04DX003 (ip), vehicle: saline
[3] = dose: 200.0 mg/kg/injection, schedule: Q01DX001 (ip), vehicle: saline
[4] = dose: 200.0 mg/kg/injection, schedule: Q04DX003 (ip), vehicle: saline
[5] = dose: 400.0 mg/kg/injection, schedule: Q01DX001 (ip), vehicle: saline
[6] = dose: 12.5 mg/kg/injection, schedule: Q04DX003 (ip), vehicle: Klucel (hydroxypropylcellulose) (HPC)
[7] = dose: 25.0 mg/kg/injection, schedule: Q01DX009 (ip), vehicle: saline
[8] = dose: 50.0 mg/kg/injection, schedule: Q01DX009 (ip), vehicle: saline
[9] = dose: 100.0 mg/kg/injection, schedule: Q01DX009 (ip), vehicle: Klucel (hydroxypropylcellulose) (HPC)
[10] = dose: 200.0 mg/kg/injection, schedule: Q01DX009 (ip), vehicle: Klucel (hydroxypropylcellulose) (HPC)
[11] = dose: 100.0 mg/kg/injection, schedule: Q01DX009 (ip), vehicle: saline with Tween-80
[12] = dose: 200.0 mg/kg/injection, schedule: Q01DX009 (ip), vehicle: saline with Tween-80

Measured: T/C

COc1cccc2c1C(=O)c1c(O)c3c(c(O)c1C2=O)CC(O)(/C(C)=N/NC(=O)c1ccccc1)CC3OC1CC(N)C(O)C(C)O1 (configuration not stated)
inactive: dose: 200.0 mg/kg/injection, schedule: Q04DX003 (ip), vehicle: water 124 % of control

O=S(=O)(c1ccccc1)C1CC1c1ccccc1 (configuration not stated)
inactive: dose: 50.0 mg/kg/injection, schedule: Q01DX009 (ip), vehicle: acetone 95 % of control | [1] 94 % of control | dose: 100.0 mg/kg/injection, schedule: Q01DX009 (ip), vehicle: acetone 93 % of control | [2] 98 % of control | [3] 102 % of control | dose: 200.0 mg/kg/injection, schedule: Q01DX009 (ip), vehicle: acetone 97 % of control | [4] 96 % of control | [5] 102 % of control | dose: 400.0 mg/kg/injection, schedule: Q04DX003 (ip), vehicle: saline 98 % of control

N=C(N)SC12CC3CC(CC(C3)C1)C2
inactive: dose: 10.0 mg/kg/injection, schedule: Q04DX002 (ip), vehicle: Klucel (hydroxypropylcellulose) (HPC) 94 % of control | dose: 20.0 mg/kg/injection, schedule: Q04DX002 (ip), vehicle: Klucel (hydroxypropylcellulose) (HPC) 87 % of control | dose: 40.0 mg/kg/injection, schedule: Q04DX002 (ip), vehicle: Klucel (hydroxypropylcellulose) (HPC) 94 % of control

CCOC(=O)C(C#N)C(C(C)=O)C(=O)OCC (configuration not stated)
inactive: dose: 25.0 mg/kg/injection, schedule: Q01DX009 (ip), vehicle: saline sonified 120 % of control | dose: 50.0 mg/kg/injection, schedule: Q01DX009 (ip), vehicle: saline sonified 124 % of control | dose: 75.0 mg/kg/injection, schedule: Q01DX001 (ip), vehicle: other 94 % of control | dose: 100.0 mg/kg/injection, schedule: Q01DX009 (ip), vehicle: saline sonified 104 % of control | dose: 100.0 mg/kg/injection, schedule: Q04DX003 (ip), vehicle: saline sonified 110 % of control | dose: 150.0 mg/kg/injection, schedule: Q01DX001 (ip), vehicle: other 102 % of control | dose: 300.0 mg/kg/injection, schedule: Q01DX001 (ip), vehicle: other 100 % of control

COC(CBr)c1ccccc1 (configuration not stated)
inactive: [6] 98 % of control | [7] 108 % of control | dose: 25.0 mg/kg/injection, schedule: Q04DX003 (ip), vehicle: Klucel (hydroxypropylcellulose) (HPC) 101 % of control | [8] 98 % of control | dose: 50.0 mg/kg/injection, schedule: Q04DX003 (ip), vehicle: Klucel (hydroxypropylcellulose) (HPC) 96 % of control | dose: 100.0 mg/kg/injection, schedule: Q01DX009 (ip), vehicle: saline 95 % of control

c1ccc2c[n+](C[n+]3ccc4ccccc4c3)ccc2c1
inactive: [2] 103 % of control | [4] 105 % of control

CCO/C(C)=N/OC(=O)c1ccccc1
inactive: dose: 100.0 mg/kg/injection, schedule: Q04DX002 (ip), vehicle: Klucel (hydroxypropylcellulose) (HPC) 94 % of control | dose: 200.0 mg/kg/injection, schedule: Q04DX002 (ip), vehicle: Klucel (hydroxypropylcellulose) (HPC) 110 % of control | dose: 400.0 mg/kg/injection, schedule: Q04DX002 (ip), vehicle: Klucel (hydroxypropylcellulose) (HPC) 94 % of control

COc1ccc(CCN=C(N)CCl)cc1
inactive: dose: 100.0 mg/kg/injection, schedule: Q04DX002 (ip), vehicle: saline 95 % of control | dose: 200.0 mg/kg/injection, schedule: Q04DX002 (ip), vehicle: saline 106 % of control

Cc1ccc(OC/C=C/CS(=O)(=O)c2ccc(C)cc2)cc1
inactive: dose: 50.0 mg/kg/injection, schedule: Q01DX009 (ip), vehicle: Klucel (hydroxypropylcellulose) (HPC) 100 % of control | dose: 75.0 mg/kg/injection, schedule: Q01DX001 (ip), vehicle: Klucel (hydroxypropylcellulose) (HPC) 93 % of control | [9] 98 % of control | dose: 150.0 mg/kg/injection, schedule: Q01DX001 (ip), vehicle: Klucel (hydroxypropylcellulose) (HPC) 98 % of control | [10] 98 % of control | dose: 300.0 mg/kg/injection, schedule: Q01DX001 (ip), vehicle: Klucel (hydroxypropylcellulose) (HPC) 95 % of control

CCCN(CCC)S(=O)(=O)CCC
inactive: dose: 50.0 mg/kg/injection, schedule: Q04DX002 (ip), vehicle: saline with Tween-80 97 % of control | dose: 100.0 mg/kg/injection, schedule: Q04DX002 (ip), vehicle: saline with Tween-80 97 % of control | dose: 200.0 mg/kg/injection, schedule: Q04DX002 (ip), vehicle: saline with Tween-80 101 % of control

CSc1nc(N)nc2nc(C)c(C)cc12
inactive: dose: 100.0 mg/kg/injection, schedule: Q01DX Z (ip), vehicle: methylcellulose (MC) 90 % of control | dose: 200.0 mg/kg/injection, schedule: Q01DX Z (ip), vehicle: methylcellulose (MC) 89 % of control

CC(C)(C)OC(=O)CCSC(C)(C)C
inactive: dose: 100.0 mg/kg/injection, schedule: Q01DX001 (ip), vehicle: Klucel (hydroxypropylcellulose) (HPC) 96 % of control | dose: 200.0 mg/kg/injection, schedule: Q01DX001 (ip), vehicle: Klucel (hydroxypropylcellulose) (HPC) 96 % of control | dose: 400.0 mg/kg/injection, schedule: Q01DX001 (ip), vehicle: Klucel (hydroxypropylcellulose) (HPC) 96 % of control

CSc1nccc(=O)n1C
inactive: dose: 12.5 mg/kg/injection, schedule: Q01DX009 (ip), vehicle: saline 96 % of control | [7] 96 % of control | dose: 25.0 mg/kg/injection, schedule: Q04DX003 (ip), vehicle: saline 98 % of control | [8] 101 % of control | dose: 50.0 mg/kg/injection, schedule: Q04DX003 (ip), vehicle: saline 106 % of control | [2] 107 % of control

CN(CCC#N)C1=CCCCCC1
inactive: [1] 101 % of control | [3] 97 % of control

CCCCSC1=CC(=O)c2ccccc2C1=O
inactive: [6] 104 % of control

CCC(=O)c1ccc(O)c(C)c1
inactive: dose: 55.5 mg/kg/injection, schedule: Q01DX Z (ip), vehicle: methylcellulose (MC) 98 % of control | dose: 83.3 mg/kg/injection, schedule: Q01DX Z (ip), vehicle: methylcellulose (MC) 96 % of control | dose: 125.0 mg/kg/injection, schedule: Q01DX Z (ip), vehicle: methylcellulose (MC) 102 % of control | dose: 187.5 mg/kg/injection, schedule: Q01DX Z (ip), vehicle: methylcellulose (MC) 103 % of control

O=C(CNC(=O)Nc1cccc(Cl)c1Cl)N/N=C/c1ccccc1O
inactive: dose: 50.0 mg/kg/injection, schedule: Q01DX009 (ip), vehicle: saline with Tween-80 104 % of control | [11] 101 % of control | [12] 96 % of control

CCCCNC(C)(C)CSSSCC(C)(C)NCCCC
inactive: dose: 6.25 mg/kg/injection, schedule: Q01DX009 (ip), vehicle: water 102 % of control | dose: 12.5 mg/kg/injection, schedule: Q01DX009 (ip), vehicle: water 92 % of control | dose: 12.5 mg/kg/injection, schedule: Q04DX003 (ip), vehicle: other 96 % of control | dose: 25.0 mg/kg/injection, schedule: Q01DX009 (ip), vehicle: water 92 % of control | dose: 25.0 mg/kg/injection, schedule: Q04DX003 (ip), vehicle: other 94 % of control | dose: 50.0 mg/kg/injection, schedule: Q01DX009 (ip), vehicle: other 106 % of control | dose: 50.0 mg/kg/injection, schedule: Q01DX009 (ip), vehicle: water 103 % of control | dose: 50.0 mg/kg/injection, schedule: Q04DX003 (ip), vehicle: other 94 % of control | dose: 100.0 mg/kg/injection, schedule: Q01DX009 (ip), vehicle: other 95 % of control

O=C(CCCC(=O)N/N=C/c1ccc(Cl)cc1Cl)N/N=C\c1ccc(Cl)cc1Cl
inactive: dose: 50.0 mg/kg/injection, schedule: Q01DX001 (ip), vehicle: saline 97 % of control | [1] 97 % of control | [3] 93 % of control | [5] 97 % of control

C=CCOCC(C)OC(=O)C(C)C (configuration not stated)
inactive: [1] 107 % of control | [3] 94 % of control | [5] 90 % of control

O=C(Nc1cccc(Cl)c1Cl)Oc1ccc(F)cc1Cl
inactive: [9] 108 % of control | [10] 108 % of control | dose: 400.0 mg/kg/injection, schedule: Q01DX009 (ip), vehicle: Klucel (hydroxypropylcellulose) (HPC) 113 % of control

COc1cc(/C=N/N2C(=O)CSC2=S)ccc1OCc1ccccc1
inactive: [11] 89 % of control | dose: 100.0 mg/kg/injection, schedule: Q04DX003 (ip), vehicle: saline with Tween-80 93 % of control | [12] 91 % of control | dose: 200.0 mg/kg/injection, schedule: Q04DX003 (ip), vehicle: saline with Tween-80 93 % of control | dose: 400.0 mg/kg/injection, schedule: Q04DX003 (ip), vehicle: saline with Tween-80 86 % of control
